From patent publication US10098581B2, “Integrated electrical profiling system for measuring leukocytes activation from whole blood” (Massachusetts Institute of Technology, priority 2014, dated 2018)

Tests used:
Type in all cases: cell-based
human granulocytes [1] = assay: Single-sided iso-dielectric separation (IDS): IDP distributions of PMA-treated vs non-treated granulocytes
Excerpt: In IDS, a heterogeneous population of cells suspended in high conductivity media was loaded into a microfluidic chip. Other inlets containing intermediate and low conductivity media provided a parallel laminar co-flow. This configuration generated a conductivity gradient perpendicular to the main microfluidic channel flow. The channel also had slanted planar electrodes patterned at the bottom (single-sided IDS) or top and bottom (double-sided IDS). An AC electric field applied to the electrodes generated a DEP barrier that guided the cells across the conductivity gradient. Cells escaped the DEP barrier at their isodielectric position (IDP), which is the position where they are at dielectric equilibrium with the surrounding medium. Cells with different effective permittivity (or effective conductivity) escaped at a different IDP resulting in a transverse spatial distribution of cells. A CCD camera near the end of the channel took videos of the cells. Finally, image-processing software detected these cells and computed the resulting IDP distribution (see FIGS. 4a-4d).
To determine the IDP different populations, suspensions (2×10^6 cells/ml) in PBS buffer with a conductivity of 1.2 S/m (PBS, 1% BSA, 1 u Heparin) were used. For the intermediate and low conductivity media, this buffer was mixed with an isotonic sucrose solution to achieve an intermediate conductivity of 0.8 S/m and a low conductivity of 0.4 S/m.
A function generator (Agilent 33220A) and an amplifier applied a 10 Vpp AC field with the same amplitude across all frequencies. A CCD camera at the end of the main channel imaged fluorescently labeled cells flowing across the field of view. An image detection script analyzed the videos to detect cells in each frame and determine the centroid of each cell. The same script generated cell position distributions that correspond to the resulting IDP distribution.
(§1) Human granulocytes were activated with different concentrations of PMA (Phorbol 12-Myristate 13-Acetate, Sigma Aldrich) in a PBS solution with Mg^++ and Ca^++. To activate the cells, a 1:1 solution of suspended cells was mixed with PMA buffer and the resulting suspension was incubated for 20 min at room temperature.
Using a single-sided IDS platform, the IDP distributions of granulocytes treated with 1 μM PMA and a control population of non-treated granulocytes were examined. A 10 Vpp AC voltage was applied to the electrodes with frequencies ranging from 0.5 MHz to 15 MHz. Cells were loaded at 0.4 μl/min and the intermediate and low conductivity buffer at 0.55 μl/min (1.5 μl/min total). To determine the IDP distributions for each frequency, the IDP distributions of at least 1000 cells were recorded, which required an acquisition of about 1.5 min. […]

neutrophils = assay: IDP evolution of PMA-treated neutrophils over treatment time; settings: normalized IDP vs PMA treatment time in minutes (FIG. 16B)
Excerpt: In another embodiment according to the invention, isodielectric position dynamics can be used to assist with diagnostics. In particular, activation of leukocytes can be tracked with DCFH-DA oxidation. FIG. 16A is a graph of respiratory burst (DCFH-DA oxidation), showing DCF median intensity on the vertical axis, versus PMA (Phorbol 12-Myristate 13-Acetate, Sigma Aldrich) treatment time in minutes (horizontal axis), at different concentrations of PMA. FIG. 16B is a graph of iso-dielectric point (IDP) evolution of PMA-treated neutrophils, showing normalized IDP on the vertical axis versus PMA treatment time in minutes on the horizontal axis.

human granulocytes [2] = assay: IDS mechanism study of neutrophil activation with chemical inhibitors; settings: 10 MHz; 0.5 μM fMLP, 2 μM PMA; 20 minutes stimulation
Protocol: This experiment focuses on the mechanism study of electrical changes during neutrophil activation. The mechanism study aims to help understand which aspect of neutrophil activation iso-dielectric separation is sensitive to. Different inhibitors were added to reduce the effect of membrane ruffling, reactive oxygen species (ROS) generation, and degranulation before activation to decouple the effect of the three factors. FIG. 19 is a schematic diagram illustrating aspects of activation of a neutrophil in response to a stimulus. In membrane ruffling, volume changes occur with advanced activation. Membrane roughness can increase the membrane capacitance. In Reactive Oxygen Species (ROS) generation, cytoplasm conductivity increases. NADPH oxidase is a major cause of the ROS generation. Degranulation occurs during phagocytosis, and lowers cytoplasmic ionic content. The experiment uses chemical inhibitors to block specific aspects of activation to determine the dominant causes of electrical changes. FIG. 20A is a summary of the procedure. Human granulocytes are first isolated from whole blood with a density gradient method, and then were split into six aliquots for different treatment. CytB, CytB+Jasp, CytB+DPI were added for inhibiting membrane ruffling, membrane ruffling and degranulation, membrane ruffling and ROS generation, respectively. The inhibition treatment lasted for ten minutes. […]

human granulocytes [3] = assay: Flow cytometry and functional assays of PMA-activated granulocytes; settings: different doses of PMA
Protocol: 10 ml samples of heparinized human blood were obtained from healthy donors (Blood Research Components, LLC). Two aliquots of 5 ml of blood were set in 3 ml of Mono-Poly Resolving Medium (MP Biosciences) and the samples were spun in a free hanging centrifuge at 400 cfg for 40 min. The resulting layered samples contained a band of granulocytes that were recovered and triple washed with a PBS solution. Finally, the cells were resuspended in a PBS solution (PBS, 1% BSA, 1 u Heparin).
as §1
Flow cytometry (FC) was performed with a BD Accuri (Becton Dickinson) flow cytometer with a 488 nm and a 670 nm emitter. Granulocytes were gated based on side and forward scatter and stained with anti-human CD11b-PE, anti-human CD66b-PerCP-CY5.5 and anti-human CD18-FITC (Becton Dickinson) as activation indicators. Mouse samples were stained using anti-mouse CD-18 and anti-mouse Ly6G as an activation marker.
The first goal was to confirm that IDS is able to discern IDP differences in activated and non-activated human granulocytes extracted from freshly collected blood. […]

Row | Compound | IDP distribution of treated granulocytes vs non-treated control (human granulocytes [1]; 1 μM PMA, as frequency increases (0.5-15 MHz), 10 Vpp) | peak ROC area-under-the-curve (AUC), IDP as classification threshold (human granulocytes [1]; 1 μM PMA, frequencies 10-15 MHz) | activation state of neutrophils (IDP profiling) (human granulocytes [1]; 1000 nM PMA) | ROC area under the curve, IDP as classification criteria (human granulocytes [1]; PMA treated vs control, above 5 MHz) | IDP of treated neutrophils versus treatment time (neutrophils) | IDP shift of stimulated granulocytes (indicating activation) (human granulocytes [2]) | levels of reactive oxygen species (human granulocytes [3]) | CD11b and CD18 expression (human granulocytes [3]; 20 min at room temperature)
1 | CCCCCCCCCCCCCC(=O)O[C@@H]1[C@@H](C)[C@@]2(O)[C@@H](C=C(CO)C[C@]3(O)C(=O)C(C)=C[C@@H]23)[C@@H]2C(C)(C)[C@]12OC(C)=O [PMA, Phorbol 12-Myristate 13-Acetate] | displaced towards higher IDP | 0.62 | activated | > 0.6 | changes over time | shifted to the left | increased | increased
2 | CSCC[C@H](NC=O)C(=O)N[C@@H](CC(C)C)C(=O)N[C@@H](Cc1ccccc1)C(=O)O [fMLP, N-Formylmethionyl-leucyl-phenylalanine] | – | – | – | – | – | shifted to the left | – | –
